Data from patent US4851211A, “LHRH analog formulations” (Abbott Laboratories, priority 1986, dated 1989).

Experiments:
[1] = ionizable site of leuprolide; cited from earlier work
[2] = Bioabsorption testing: leuprolide levels after inhalation of solution aerosol (radioimmunoassay); conditions: aerosol compared with comparable intravenous dose
Protocol: Healthy male beagle dogs (9-18 months old) were provided with free access to food during entire study. There were three dogs of each sex in each treatment group. Body weight, food consumption and other pertinent clinical signs were monitored at a regular basis during the study. […] Drug administration was carried out through 2 weeks. Leuprolide plasma concentrations was determined during day 1 of the study in order to evaluate bioabsorption of leuprolide from the aerosol. Blood samples of approximately 2-3 ml were obtained from the jugular vein and allowed to clot. After centrifugation, the serum fraction was removed and assayed for leuprolide using a radioimmunoassay technique. Relative absorption of leuprolide via the inhalation route of administration was estimated using mean historical data from representative intravenously administered formulations.

[3] = no counterion

Question: Which “pKa, guanidine nitrogen of arginine” value [1] does the source give for `CCNC(=O)[C@@H]1CCCN1C(=O)[C@H](CCCNC(=N)N)NC(=O)[C@H](CC(C)C)NC(=O)[C@@H](CC(C)C)NC(=O)[C@H](Cc1ccc(O)cc1)NC(=O)[C@H](CO)NC(=O)[C@H](Cc1c[nH]c2ccccc12)NC(=O)[C@H](Cc1c[nH]cn1)NC(=O)[C@@H]1CCC(=O)N1` [leuprolide, 5-Oxo-L-prolyl-L-histidyl-L-tryptophanyl-L-seryl-L-tyrosyl-D-leucyl-L-leucyl-L-arginyl-L-prolylethylamide acetate] here?
Answer: The value was “approximately 13.0”.

Question: And the “pKa, imidazolyl nitrogen of histidine” value [1]?
Answer: The value was “approximately 6.0”.

Question: And the “pKa, phenolic hydroxyl of tyrosine” value [1]?
Answer: The value was “approximately 10.0”.

Question: What about the plasma peak concentration [2] of the same molecule?
Answer: The plasma peak concentration was “approximately equals that of a comparable dose administered intravenously”.

Question: What about the solubility of leuprolide ([3]; mixtures of ethyl alcohol and fluorocarbons) of the same molecule?
Answer: The solubility of leuprolide was about 3000 µg/mL.

Question: What about the “equilibrium solubility of leuprolide” value ([3]; mixtures of fluorocarbons, ethyl alcohol and water) of the same molecule?
Answer: The value was about 5000 µg/mL.
